Experimental data from US5612208A, “Ascorbate oxidase, gene encoding the same, process for producing the same, and reagent composition using the same” (Amano Pharmaceutical Co., Ltd., priority 1994, dated 1997).
Read-outs that look alike come from different tables or passages of the source.

Columns and labels:
[1] = test system: L-ascorbate oxidase (ASOD) of Eupenicillium brefeldianum APC-9315, purified native enzyme; format: biochemical
Protocol: The relative residual activity of ASOD after incubation with various inhibitors at 37° C. for 2 hours.
(§1) To 0.1 ml of a sample to be assayed is added 0.5 ml of 10 mM Na2 HPO4 and 0.45 ml of 0.2M KH2 PO4 containing 1 mM EDTA, and the mixture is mixed and preincubated at 30° C. for 5 minutes. To the mixture is added 0.05 ml of a 10 mM substrate solution of L-ascorbic acid in 0,001N HCl containing 1 mM EDTA, followed by incubation at 30° C. for 10 minutes. The reaction is stopped by addition of 3.0 ml of 0.2N HCl, and a reduction in absorbance at 245 nm is measured. The amount of ASOD in the sample which decomposes 1 μmol of L-ascorbic acid per 1 minute is taken as one unit.

[2] = test system: L-ascorbate oxidase (ASOD) of Eupenicillium brefeldianum APC-9315, purified native enzyme; test: Michaelis constant (Km) for L-ascorbic acid, spectrophotometry method; format: biochemical; settings: by the spectrophotometry method
Protocol: (8) Michaelis Constant (Km) for L-Ascorbic Acid
4.9×10^-4 M (by the spectrophotometry method)
as §1

[3] = test system: ascorbate oxidase (ASO) from spores of Myrothecium verrucaria; settings: data from Nihon Eiyo-Shokuryo Gakkaishi, 40, (1), 47-51 (1987); read-out: Km (L-Ascorbate); cited from earlier work
[4] = test system: ascorbate oxidase of microorganism of the genus Trichoderma or Mortierella (JP-A-6-209770); settings: data from JP-A-6-209770; read-out: Km (L-Ascorbate); cited from earlier work
[5] = test system: ascorbate oxidase of microorganism of the genus Trichoderma or Mortierella (JP-A-6-209770); settings: data from JP-A-6-209770; cited from earlier work
[6] = test system: ascorbate oxidase (ASO) of Acremonium sp. HI-25; settings: data from Biosci. Biotechnol. Biochem., 56 (6), 847-852 (1992) & JP-A-3-236766; cited from earlier work
[7] = test system: ascorbate oxidase (ASO) from spores of Myrothecium verrucaria; settings: data from Nihon Eiyo-Shokuryo Gakkaishi, 40, (1), 47-51 (1987); cited from earlier work
[8] = biological target: T1, ascorbate oxidase (ASO) of cucumber (Cucumis sativus, UniProt P14133); settings: data from J. Biochem., 64 189 (1968); cited from earlier work
T1 construct: cucumbers (T. Nakamura, N. Makino and Y. Ogura, J. Biochem., Vol. 64, p. 189 (1968)); host or cells: enzyme isolated from cucumbers
T1 sequence (P14133 34-587): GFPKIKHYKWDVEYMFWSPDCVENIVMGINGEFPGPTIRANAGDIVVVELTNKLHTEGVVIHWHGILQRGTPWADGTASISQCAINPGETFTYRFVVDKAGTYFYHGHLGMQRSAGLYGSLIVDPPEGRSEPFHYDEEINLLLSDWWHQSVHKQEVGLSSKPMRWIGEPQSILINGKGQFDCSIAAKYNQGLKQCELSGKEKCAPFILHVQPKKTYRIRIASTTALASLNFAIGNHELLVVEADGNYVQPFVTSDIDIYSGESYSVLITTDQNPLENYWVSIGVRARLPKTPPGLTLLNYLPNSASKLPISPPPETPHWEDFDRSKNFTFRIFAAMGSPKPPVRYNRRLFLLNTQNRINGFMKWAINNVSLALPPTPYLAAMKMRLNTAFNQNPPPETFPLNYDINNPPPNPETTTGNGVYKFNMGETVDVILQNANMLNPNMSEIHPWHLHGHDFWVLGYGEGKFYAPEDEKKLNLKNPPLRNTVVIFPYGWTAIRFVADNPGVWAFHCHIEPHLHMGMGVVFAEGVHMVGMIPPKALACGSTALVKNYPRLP

[9] = incubation with inhibitor at 37° C. for 2 hours, inhibitor concentration not printed

O[C@H](CS)[C@H](O)CS (racemic) [dithiothreitol]
Inhibition by inhibitor (relative residual activity), in words [1, 9]: not substantially inhibited

O=C1O[C@H]([C@@H](O)CO)C(O)=C1O [L-Ascorbic Acid, L-ascorbic acid]
Km [2]: 490 µM | Km [3]: 3000 µM | Km [4]: 700 µM

O=C(O)CI [monoiodoacetic acid]
Inhibition by inhibitor [1]: 50% | Inhibition by inhibitor (relative residual activity), in words [1]: inhibited partially | Inhibition by inhibitor, in words [5]: uninhibited

[N-]=[N+]=[N-] [sodium azide]
Inhibition by inhibitor (relative residual activity), in words [1, 9]: not substantially inhibited | Inhibition by inhibitor (relative residual activity), in words ([1]; incubation with inhibitor at 37° C. for 2 hours, inhibitor concentration not printed, listed as Sodium Azide): uninhibited | Inhibition by inhibitor, in words [6]: inhibited | Inhibition by inhibitor, in words [7]: uninhibited | Inhibition by inhibitor, in words [8]: inhibited
